One assay addresses AcpS enzyme (Escherichia coli, UniProt P24224). Briefly: Measurement of AcpS inhibition ([3H]acetyl-CoA incorporation into apo-ACP). Type of assay: biochemical. Particulars: % activity vs blank-subtracted counts. Here is the method:
[^3H]Acetyl-CoA was mixed as 1 volume of Perkin Elmer NET290 radiolabeled stock (e.g. 0.1 mCi/ml, 3.7 Ci/mmol in Na-acetate, pH 4.5-5.0=27 μM) with 1.2 volumes of 1 mM unlabelled acetyl-CoA (Sigma). Trichloroacetic acid was prepared as a 10% w/v solution. Bovine serum albumin was prepared as a 25 mg/ml solution in water. DTT was prepared as a 50 mM solution in water.
• 1. A standard reaction contained the following in a total volume of 10 μl:
• 2. Tubes were incubated at RT. [^3H]acetyl-CoA was added last to start the reaction. To stop the reaction, 2 μl was removed to a 1.5-ml microfuge tube containing 800 μl cold 10% TCA. Up to four time points were collected for each reaction, e.g. at 5 min, 10 min, 30 min, and 60 min. • 3. 20 μl of 25 mg/ml BSA was added to each tube, mixed and incubated on ice for 10 min, then centrifuged at 12,000 g for 5 min to form a pellet. Supernatant was removed using P1000. • 4. Each pellet was washed twice with 800 μl of cold 10% TCA each time, then centrifuged at 12,000 g for 5 min after each wash. The supernatant was discarded. Each pellet was resuspended in 50 μl of formic acid. The suspension was transferred to a scintillation vial and radioactivity was measured in 2 ml of liquid scintillation cocktail.
The random (stochastic) error in scintillation counting is proportional to the square root of the counts (not dpm) accumulated in the counting period; i.e. 10% for 100, 3.3% for 1,000, 1% for 10,000, etc. Provided radioactive counts (dpm) are in the thousands, the assay provides useful data. Results are reported in terms of % activity with respect to the blank-subtracted counts for working substrate. A % activity of less than about 40% is indicative of AcpS enzyme inhibition by the test compound at that concentration.

In assay [1] the test system is Methicillin-Resistant Staph. aureus (MRSA). Briefly: MIC, NCCLS M7-A6 broth microdilution, MRSA. It is filed as cell-based. Particulars: 16 to 20 h, 35 degrees Celsius; for MIC: Staphylococcus aureus, MRSA. Here is the method: (§1) Susceptibilities to the compounds were determined using the National Committee for Clinical Laboratory Standards (NCCLS) M7-A6 broth microdilution method. Cation-adjusted Mueller-Hinton broth (Ca^2+, 25 μg/mL; Mg^2+, 12.5 μg/mL) microdilution panels were prepared to contain antimicrobial doubling dilution concentrations of an appropriate range. DMSO (dimethylsulfoxide) controls were incorporated into the panel to mimic the quantity of DMSO used in dissolving some of the compounds at the higher concentrations. Each final panel well volume was 100 μL with a bacterial inoculum of 5×10^5 CFU (colony forming units)/mL of the relevant bacterium. Panels were read following 16 to 20 h of incubation at 35 degrees Celsius in ambient air. The MIC (minimum inhibitory concentration) was defined as the lowest concentration of antimicrobial inhibiting visible growth.
For orientation: Dilution methods test growth across graded concentrations, often in twofold steps.

Another assay deals with E. coli D22. Briefly: MIC, NCCLS M7-A6 broth microdilution, E. coli D22. It is filed as cell-based. Particulars: 35 degrees Celsius; for MIC: Escherichia coli, D22, 16 to 20 h. How it is done: as §1

Converted amounts (≈) assume the structure as drawn.

AcpS enzyme, sequence (P24224 whole entry): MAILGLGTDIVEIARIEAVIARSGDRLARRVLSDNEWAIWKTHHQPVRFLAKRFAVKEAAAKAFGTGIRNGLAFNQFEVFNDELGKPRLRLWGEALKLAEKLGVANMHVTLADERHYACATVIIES

As usually defined, the remaining activity is the activity still measured, relative to the control. The low end stands for a large loss of activity, the high end for a small loss of activity. As usually defined, the MIC is the least concentration at which growth counts as inhibited. A low value points to greater potency. At AcpS enzyme (test compound 50 uM), `Cc1ccc(-c2cc(-c3nn[nH]n3)cc(-c3ccc(C)c4ccccc34)c2)c2ccccc12` [DNM0461, 5-(3,5-Bis(4-methylnaphthalen-1-yl)phenyl)-2H-tetrazole] returned an activity at 50 µM of 13.4%. On AcpS enzyme (test compound 500 uM), the remaining activity at 500 µM was determined as 0.85%. The MIC was 1 µM (≈ 0.427 µg/mL) in assay [1] and > 125 µM against E. coli D22.
Consider `Cc1ccc(C2(c3cccc(Cl)c3)C=C(c3nnn[nH]3)SC2)c2ccccc12` (stereo not drawn) [DNM0575, 5-(4-(5-Chlorophenyl)-4-(4-methylnaphthalen-1-yl)thiophen-2-yl)-1H-tetrazole], for which the activity at 50 µM on AcpS enzyme (test compound 50 uM) came out at 5.86%. This molecule also returned a remaining activity at 500 µM on AcpS enzyme (test compound 500 uM) of 0.23%. The MIC is 8 µM (≈ 3.24 µg/mL) in assay [1] and > 125 µM against E. coli D22.
Turning to `COc1ccc(-c2cc(-c3nnn[nH]3)sc2-c2ccc(OC)c(Cl)c2)cc1Cl` [DNM0565, 5-(4,5-Bis(3-chloro-4-methoxyphenyl)thiophen-2-yl)-1H-tetrazole], the activity at 50 µM at AcpS enzyme (test compound 50 uM) is 22.9%. This molecule came in with a remaining activity at 500 µM at AcpS enzyme (test compound 500 uM) of 0.11%. In addition, the MIC in assay [1] was 15 µM (≈ 6.5 µg/mL); against E. coli D22, > 125 µM.
`Cc1ccc(-c2cc(-c3nnn[nH]3)sc2-c2ccc(C)c(Cl)c2)cc1Cl` [DNM0504, 5-(4,5-Bis(3-chloro-4-methylphenyl)thiophen-2-yl)-1H-tetrazole] had an activity at 50 µM at AcpS enzyme (test compound 50 uM) of 7.33%. Besides, the remaining activity at 500 µM on AcpS enzyme (test compound 500 uM) was 0.16%. Besides, the MIC (in assay [1]; with E. coli D22) was 125 µM (≈ 50.2 µg/mL) each time.
At AcpS enzyme (test compound 50 uM), `c1ccc(Oc2ccccc2-c2cc(-c3nnn[nH]3)sc2-c2ccccc2Oc2ccccc2)cc1` [DNM0536, 5-(4,5-Bis(2-phenoxyphenyl)thiophen-2-yl)-1H-tetrazole] registered an activity at 50 µM of 8.25%. Also, at AcpS enzyme (test compound 500 uM), the remaining activity at 500 µM is 0.2%. In addition, the MIC was 8 µM (≈ 3.91 µg/mL) in assay [1] and 125 µM (≈ 61.1 µg/mL) against E. coli D22.
For the molecule `c1ccc(-c2cc(-c3nnn[nH]3)sc2-c2ccccc2-c2ccoc2)c(-c2ccoc2)c1` [DNM0560, 5-(4,5-Bis(2-(furan-3-yl)phenyl)thiophen-2-yl)-1H-tetrazole], on AcpS enzyme (test compound 50 uM), the activity at 50 µM is 63.6%. The remaining activity at 500 µM at AcpS enzyme (test compound 500 uM) is 0.06%. In addition, the MIC in assay [1] was 15 µM (≈ 6.55 µg/mL); against E. coli D22, > 125 µM.
In the case of `Cc1ccccc1-c1cc(-c2nnn[nH]2)sc1-c1ccccc1C` [DNM0531, 5-(4,5-Bis(2-methylphenyl)thiophen-2-yl)-1H-tetrazole], the activity at 50 µM on AcpS enzyme (test compound 50 uM) amounted to 96.8%. For the same molecule, the remaining activity at 500 µM at AcpS enzyme (test compound 500 uM) worked out at 4.38%. Further, the MIC was 60 µM (≈ 19.9 µg/mL) in assay [1] and > 125 µM in the assay on E. coli D22.
In the same order, the values of `c1ccc2c(c1)oc1c(-c3cc(-c4nnn[nH]4)sc3-c3cccc4c3oc3ccccc34)cccc12` [DNM0542, 5-(4,5-Bis(dibenzo[b,d]furan-4-yl)thiophen-2-yl)-1H-tetrazole] are 9.58%, 0.7%, 2 µM (≈ 0.969 µg/mL) and > 125 µM.
As for `Clc1cccc(-c2ccccc2-c2cc(-c3nn[nH]n3)cc(-c3ccccc3-c3cccc(Cl)c3)c2)c1` [DNM0493], the “% AcpS activity at 50 uM” value on AcpS enzyme (test compound 50 uM) was found to be 25.28%. Further, the “% AcpS activity @ 500 uM” value on AcpS enzyme (test compound 500 uM) came to 2.7%. The “MIC MRSA” value in assay [1] worked out at 4 µM (≈ 2.08 µg/mL). The “MIC E coli D22” value in the assay with E. coli D22 (16 to 20 h) was >125 µM.
Molecule `Clc1ccc(Cc2sc(-c3nnn[nH]3)cc2-c2ccccc2-c2ccccc2)cc1` [DNM0588, 5-(4-(Biphenyl-2-yl)-5-(4-chlorobenzyl)thiophen-2-yl)-1H-tetrazole] registered an activity at 50 µM on AcpS enzyme (test compound 50 uM) of 2.67%. Moreover, at AcpS enzyme (test compound 500 uM), the remaining activity at 500 µM is 0%. Also, the MIC in assay [1] stood at 8 µM (≈ 3.43 µg/mL).
In the same order, the values of `Fc1ccc(-c2cc(-c3nnn[nH]3)sc2Cc2ccc(Cl)cc2)c2ccccc12` [DNM0587, 5-(5-(4-Chlorobenzyl)-4-(4-fluoronaphthalen-1-yl)thiophen-2-yl)-1H-tetrazole] are 2.13%, 0% and 8 µM (≈ 3.37 µg/mL).
